Results as given in patent EP0531958A1, “6-Aminoquinolones, their synthesis and their use as antibacterial agents” (MEDIOLANUM FARMACEUTICI S.P.A., priority 1991, dated 1993).
In brackets after ≈: the same amount, converted by molar mass. Like-named read-outs stand apart in the source and are kept apart here.

Tests used:
Type in all cases: cell-based
Gram + = test: MIC test, average over the 5 gram-positive test germs; conditions: 24 h
Procedure: (§1) As to the antibacterial activity, there was determined the Least (Minimum) Inhibiting Concentration (MIC), by working according to the following operative conditions.
(§2) There were used suspensions of test germs (5 gram-positive and 15 gram-negative) having a known titre, kept freezed at -80°C and diluted, at the time of use, in peptonized water up to a concentration of 1-2.10⁷ cfu/ml.
(§3) A few mg of the products, according to the invention were weighed sufficient for preparing parent solutions in DMSO + NaOH (1N) containing 2560 µg/ml (64µg/ml/dish). From the thus prepared parent solutions there were prepared 12 serial dilutions (1:2) down to the concentration of 1.25 µg/ml.
(§4) 0.5 ml of the different dilutions of each product were distributed on dishes containing 19.5 ml of agarized medium (TSA), maintained in a fluid state at the temperature of 50°C. After slight stirring, the dishes were made to solidify and dry under hood (laminar flow).
(§5) The MIC tests (Least or "Minimum" Inhibiting Concentration) were performed by using a Steers multiwell inoculator having 36 wells, each containing 200 µl of bacterial suspension.
(§6) After inoculation, the dishes were placed into a thermostat and checked after 24 h of incubation at 35°C.
(§7) The MIC is defined as the lowermost product concentration (µg/ml) inhibiting the visible growth of the microorganisms.

Gram - = test: MIC test, average over the 15 gram-negative test germs; conditions: 24 h
Procedure: as §1, §2, §3, §4, §5, §6, §7

[1] = tested on: Staphylococcus aureus MPR 5; test: MIC test, agar dilution with Steers multiwell inoculator; conditions: MPR5, TSA dishes, 24 h at 35°C, read-out: Minimum Inhibiting Concentration
Procedure: as §1, §2, §3, §4, §5, §6, §7

[2] = tested on: Staphylococcus epidermidis HCF Berset C.; test: as above; conditions: TSA dishes, 24 h at 35°C, read-out: Minimum Inhibiting Concentration
Procedure: as §1, §2, §3, §4, §5, §6, §7

[3] = tested on: Providencia stuardii CNUR 5; test: as above; conditions: CNUR5, TSA dishes, 24 h at 35°C, read-out: Minimum Inhibiting Concentration
Procedure: as §1, §2, §3, §4, §5, §6, §7

[4] = tested on: Pseudomonas aeruginosa CNUR 4; test: as above; conditions: CNUR4, TSA dishes, 24 h at 35°C, read-out: Minimum Inhibiting Concentration
Procedure: as §1, §2, §3, §4, §5, §6, §7

[5] = tested on: Enterobacter cloacae OMNF 1153; test: as above; conditions: OMNF1153, TSA dishes, 24 h at 35°C, read-out: Minimum Inhibiting Concentration
Procedure: as §1, §2, §3, §4, §5, §6, §7

[6] = tested on: Escherichia coli ATCC 8739; test: as above; conditions: ATCC8739, TSA dishes, 24 h at 35°C, read-out: Minimum Inhibiting Concentration
Procedure: as §1, §2, §3, §4, §5, §6, §7

[7] = tested on: Staphylococcus epidermidis CPHL A2; test: as above; conditions: CPHLA2, TSA dishes, 24 h at 35°C, read-out: Minimum Inhibiting Concentration
Procedure: as §1, §2, §3, §4, §5, §6, §7

Escherichia coli ISF 432 = test: as above; conditions: ISF432, TSA dishes, 24 h at 35°C, read-out: Minimum Inhibiting Concentration
Procedure: as §1, §2, §3, §4, §5, §6, §7

Shighella enteritidis = test: as above; conditions: TSA dishes, 24 h at 35°C, read-out: Minimum Inhibiting Concentration
Procedure: as §1, §2, §3, §4, §5, §6, §7

[8] = tested on: Klebsiella pneumoniae ATCC 10031; test: as above; conditions: ATCC10031, TSA dishes, 24 h at 35°C, read-out: Minimum Inhibiting Concentration
Procedure: as §1, §2, §3, §4, §5, §6, §7

[9] = tested on: Streptococcus facealis LEP Br.; test: as above; conditions: TSA dishes, 24 h at 35°C, read-out: Minimum Inhibiting Concentration
Procedure: as §1, §2, §3, §4, §5, §6, §7

[10] = tested on: Pseudomonas aeruginosa ATCC 9027; test: as above; conditions: ATCC9027, TSA dishes, 24 h at 35°C, read-out: Minimum Inhibiting Concentration
Procedure: as §1, §2, §3, §4, §5, §6, §7

Proteus vulgaris CNUR 6 = test: as above; conditions: CNUR6, TSA dishes, 24 h at 35°C, read-out: Minimum Inhibiting Concentration
Procedure: as §1, §2, §3, §4, §5, §6, §7

Escherichia coli 120 = test: as above; conditions: TSA dishes, 24 h at 35°C, read-out: Minimum Inhibiting Concentration
Procedure: as §1, §2, §3, §4, §5, §6, §7

[11] = tested on: Staphylococcus aureus ATCC 6538; test: as above; conditions: ATCC6538, TSA dishes, 24 h at 35°C, read-out: Minimum Inhibiting Concentration
Procedure: as §1, §2, §3, §4, §5, §6, §7

[12] = tested on: Acinebacter calcoloaceticus OSMPV 1130; test: as above; conditions: TSA dishes, 24 h at 35°C, read-out: Minimum Inhibiting Concentration
Procedure: as §1, §2, §3, §4, §5, §6, §7

Escherichia coli CNUR 1 = test: as above; conditions: CNUR1, TSA dishes, 24 h at 35°C, read-out: Minimum Inhibiting Concentration
Procedure: as §1, §2, §3, §4, §5, §6, §7

[13] = tested on: Pseudomonas aeruginosa CNUR 2; test: as above; conditions: CNUR2, TSA dishes, 24 h at 35°C, read-out: Minimum Inhibiting Concentration
Procedure: as §1, §2, §3, §4, §5, §6, §7

Escherichia coli CNUR 8 = test: as above; conditions: CNUR8, TSA dishes, 24 h at 35°C, read-out: Minimum Inhibiting Concentration
Procedure: as §1, §2, §3, §4, §5, §6, §7

[14] = tested on: Enterobacter cloacae OMNF 1174; test: as above; conditions: OMNF1174, TSA dishes, 24 h at 35°C, read-out: Minimum Inhibiting Concentration
Procedure: as §1, §2, §3, §4, §5, §6, §7

[15] = geometrical average of the MIC over the 5 Gram + strains, read-out: Geometrical Average
[16] = geometrical average of the MIC over the 15 Gram - strains, read-out: Geometrical Average
[17] = mean log of the MIC over the 15 Gram - strains, read-out: Log (converted)

Row | Compound | MIC (Gram +; read-out: Log (converted)) | MIC (Gram -; [16]) | MIC (Gram -; [17]) | MIC [1] | MIC [2] | MIC [3] | MIC [4] | MIC [5] | MIC [6] | MIC [7] | MIC (Escherichia coli ISF 432) | MIC (Shighella enteritidis) | MIC [8] | MIC [9] | MIC [10] | MIC (Proteus vulgaris CNUR 6) | MIC (Escherichia coli 120) | MIC [11] | MIC [12] | MIC (Escherichia coli CNUR 1) | other results
1 | CN1CCN(c2c(F)cc3c(=O)c(C(=O)O)cn4c3c2SCC4)CC1 [RUFLOXACIN, reference compound] | 1.52 µg/mL (≈ 4.17 µM) | 1.31 µg/mL (≈ 3.61 µM) | 1.31 µg/mL (≈ 3.61 µM) | 1 µg/mL (≈ 2.75 µM) | 2 µg/mL (≈ 5.5 µM) | 2 µg/mL (≈ 5.5 µM) | 64 µg/mL (≈ 176 µM) | 1 µg/mL (≈ 2.75 µM) | 0.5 µg/mL (≈ 1.38 µM) | 1 µg/mL (≈ 2.75 µM) | 0.06 µg/mL (≈ 0.165 µM) | 0.5 µg/mL (≈ 1.38 µM) | 0.12 µg/mL (≈ 0.33 µM) | 8 µg/mL (≈ 22 µM) | 8 µg/mL (≈ 22 µM) | 16 µg/mL (≈ 44 µM) | 0.25 µg/mL (≈ 0.688 µM) | 0.5 µg/mL (≈ 1.38 µM) | 2 µg/mL (≈ 5.5 µM) | 0.5 µg/mL (≈ 1.38 µM) | MIC (Gram +; [15]): 1.51 µg/mL; MIC [13]: 32 µg/mL (≈ 88.1 µM); MIC (Escherichia coli CNUR 8): 0.5 µg/mL (≈ 1.38 µM); MIC [14]: 0.5 µg/mL (≈ 1.38 µM)
2 | Cc1c(N2CCN(C)CC2)c(N)cc2c(=O)c(C(=O)O)cn(C3CC3)c12 [Compound 33] | 1.15 µg/mL (≈ 3.22 µM) | 0.338 µg/mL (≈ 0.948 µM) | 0.338 µg/mL (≈ 0.948 µM) | 1 µg/mL (≈ 2.81 µM) | 0.5 µg/mL (≈ 1.4 µM) | 2 µg/mL (≈ 5.61 µM) | 16 µg/mL (≈ 44.9 µM) | 0.25 µg/mL (≈ 0.701 µM) | 0.06 µg/mL (≈ 0.168 µM) | 1 µg/mL (≈ 2.81 µM) | 0.03 µg/mL (≈ 0.0842 µM) | 0.06 µg/mL (≈ 0.168 µM) | 0.03 µg/mL (≈ 0.0842 µM) | 8 µg/mL (≈ 22.4 µM) | 2 µg/mL (≈ 5.61 µM) | 8 µg/mL (≈ 22.4 µM) | 0.06 µg/mL (≈ 0.168 µM) | 0.5 µg/mL (≈ 1.4 µM) | 2 µg/mL (≈ 5.61 µM) | 0.06 µg/mL (≈ 0.168 µM) | MIC (Gram +; [15]): 1.15 µg/mL; MIC [13]: 8 µg/mL (≈ 22.4 µM); MIC (Escherichia coli CNUR 8): 0.06 µg/mL (≈ 0.168 µM); MIC [14]: 0.06 µg/mL (≈ 0.168 µM)
3 | CN1CCN(c2nc3c(c(N)c2N)c(=O)c(C(=O)O)cn3C2CC2)CC1 [Compound 42] | 4 µg/mL (≈ 11.2 µM) | 1.37 µg/mL (≈ 3.83 µM) | 1.37 µg/mL (≈ 3.82 µM) | 2 µg/mL (≈ 5.58 µM) | 4 µg/mL (≈ 11.2 µM) | 4 µg/mL (≈ 11.2 µM) | 128 µg/mL (≈ 357 µM) | 1 µg/mL (≈ 2.79 µM) | 0.06 µg/mL (≈ 0.167 µM) | 4 µg/mL (≈ 11.2 µM) | 0.06 µg/mL (≈ 0.167 µM) | 0.5 µg/mL (≈ 1.4 µM) | 0.06 µg/mL (≈ 0.167 µM) | 16 µg/mL (≈ 44.6 µM) | 8 µg/mL (≈ 22.3 µM) | 64 µg/mL (≈ 179 µM) | 0.25 µg/mL (≈ 0.698 µM) | 2 µg/mL (≈ 5.58 µM) | 4 µg/mL (≈ 11.2 µM) | 1 µg/mL (≈ 2.79 µM) | MIC [13]: 16 µg/mL (≈ 44.6 µM); MIC (Escherichia coli CNUR 8): 0.25 µg/mL (≈ 0.698 µM); MIC [14]: 1 µg/mL (≈ 2.79 µM)
